Results taken from patent US7691563B2, “Method for alleviating pain using sphingosine-1-phosphate and related compounds, and assays for identifying such compounds” (Sanofi-Aventis Pharma GmbH, priority 2003, dated 2010).
Several values for one entry are separate records, joined by “and”; a condition that tells them apart may be missing. Equal values may be shown once.

How the values were obtained:
adenylyl cyclase (AC) [1] = test: AC activity of HeLa cell lysates after treatment of cells; format: cell-based, human; conditions: for effect on serum-induced inhibition of Gαs- and forskolin-stimulated AC activity: HeLa cells transfected with ODN (3 μM), 30 minutes 10% FBS; for effect of pre-treatment on S1P inhibition of Gαs-stimulated AC activity: HeLa cells, 0.5 μM S1P, PTX 1 μg/μl 24 hours, inhibitors 10 μM 20 minutes, ODN 3 μM, 60 minutes S1P
Description: Panel B: Adenylyl cyclase activity of HeLa cell lysates was measured in the absence and presence of serum as described in Materials and Methods section. The Gsα* (80 nM; grey bars)- and forskolin (100 μM; black bars)-stimulated specific activities of ACV were 124±10 pmol/mg/min and 464±89 pmol/min/mg, respectively. The basal activity was 11.75±2 pmol/mg/min. The mean ±SE of at least 2 experiments each done in triplicates is shown. Student T test: *p<0.001.
Panel E: Serum-starved HeLa cells were treated with sense, antisense, and 3M-as ODNs as described above. After 24 hours the cells were incubated for 30 minutes with 10% FBS. Cells were harvested and AC activity in presence of Gαs* (80 nM; grey bars) and forskolin (100 μM; black bars) was determined as described above. Data from at least 3 experiments measured in triplicates are presented as the mean±SEM. Student T test: *p<0.01, **p<0.05.
Panel B: Serum-starved HeLa cells were treated for varying times with 0.5 μM S1P. Cells were harvested and AC activity in presence of 80 nM Gαs* was determined as described in Material and Methods. Data from at least 4 experiments measured in triplicates are presented as the mean ±SE.
Panel C: Serum-starved HeLa cells were treated with sense, antisense, and 3M-as ODNs as described in the Materials and Methods section. After 24 hours the cells were incubated for the indicated times with 0.5 μM S1P. Cells were harvested and AC activity in presence of Gαs* (80 nM) was determined as described above. Data are presented as the mean ±SEM of three determinations.
Panel A: Serum-starved HeLa cells were treated with 0.5 μM S1P for 3 (grey bars) or 60 (black bars) minutes. Prior incubation with S1P the cells were incubated for 24 hours with […] pertussis toxin (PTX). AC activity in was determined presence of 80 nM Gαs*. Data from at least 2 experiments measured in triplicates are presented as the mean ±SE.
Panel B: Serum-starved HeLa cells were treated with 0.5 μM S1P. Prior incubation with S1P the cells were incubated for 20 minutes with 10 μM U73122, R031-8220, BAPTA-AM or U0126. AC activity in was determined presence of 80 nM Gαs*. Data from at least 2 experiments measured in triplicates are presented as the mean ±SE.
Spinal cords were lysed in 25 mM Hepes, pH 7.4, 1 mM EGTA and cell membranes were prepared as described by Kassis and Fishman. Aliquots were stored at −80° C. until use. AC activity assays were performed in a volume of 100 μl for 15 min at room temperature in the presence of 100 μM MgCl2 as previously described (Patel et al., 2002). Gsα* (80 nM) or forskolin (100 μM) were used to stimulate AC enzyme activity in membranes (10 μg protein).
The sequences of the oligodeoxynucleotides (ODNs) were chosen as published previously (Scholich et al., 2001). Sense: 5′-CTGTTCATGCCGGTT-3′, antisense: 5′-AACCGGCATGAACAG-3′, and antisense ODN harboring three mutations (3M-as; mutations are underlined): 5′-AATCCGTATGAACAC-3′. HeLa-cells were plated on 35 mm dishes (300,000 cells) and grown in DMEM medium (Gibco, Karlsruhe, Germany) containing 10% FBS and 1% penicillin/streptoMycin for 24 hours. The ODNs (3 μM each) were introduced into the cells by transfections using Tfx20 (Promega, Madison, Wis.) in 1 ml serum-free medium according to the instructions of the manufacturer. Two hours later, 1 ml DMEM (Gibco, Karlsruhe, Germany) containing 10% FBS was added. The cells were then incubated for 6 hours. Then the medium was exchanged against serum-free DMEM (Gibco, Karlsruhe, Germany), followed by an incubation for 16 hours in serum-free DMEM (Gibco, Karlsruhe, Germany) before being treated with 10% serum or […] S1P. The cells were then used for Western blots by adding boiling 1× Laemmli buffer or they were havested for AC activity assays as described above.

PAM = PAM translocation to the plasma membrane in HeLa cells (immunofluorescence); format: cell-based, human; conditions: HeLa cells, 0.5 μM S1P; PTX 1 μg/μl 24 hours; GF109203X 1 μM, others 10 μM, 20 minutes
Description: Panel B: HeLa cells were treated with 10% fetal bovine serum for different times and stained with anti-PAM antibodies to monitor the subcellular localization.
Panel B: HeLa cells were treated with 0.5 μM S1P for 30 minutes and stained with anti-PAM antibodies to monitor the subcellular localization.
Panel C: Time dependence of PAM translocation in HeLa cells. Serum-starved HeLa cells were treated with 0.5 μM S1P for different times and stained with anti-PAM antibodies to monitor the subcellular localization.
Panel D: HeLa cells were treated with 0.5 μM S1P for 20 minutes and stained with anti-PAM antibodies to monitor the subcellular localization. Prior S1P-treatment were the cells incubated for 24 hours with […] pertussis toxin (PTX), for 20 minutes with, 1 μM GF109203X, 10 μM U0126, BAPTA-AM, U73122 or Ro31-223.
To monitor distribution of PAM in HeLa cells, cells were grown on glass coverslips in DMEM with 10% FBS and 1% penicillin/streptoMycin (Gibco, Karlsruhe, Germany). To visualize translocation of PAM HeLa, cells were serum starved overnight and subsequently treated with 10% serum for 2 hours. Wherever indicated, cells were preincubated for 30 minutes in the presence of different concentrations of inhibitors. The cells were fixed in 4% paraformaldehyde (Sigma, Taufkirchen, Germany) in PBS for 10 minutes and then permeablized in 0.1% Triton X-100 for another 5 minutes. The coverslips were blocked for 1 hour in 3% BSA in PBS and then incubated for 1 hour with anti-PAM antibody (1:50 dilution). This was followed by incubation with FITC-labeled goat anti-rabbit antibody in PBS containing 3% BSA. The cells were then washed with PBS and mounted. For the analysis confocal (BioRad, Hercules, Calif.) and regular flourescence microscopes (Nikon, Duesseldorf, Germany) were used.

adenylyl cyclase (AC) [2] = test: AC activity assay, purified PAM added to spinal cord or DRG lysates; format: biochemical, rat; conditions: 30 nM PAM
Description: Panel B: Lysates of spinal cords or DRG (10 μg) were assayed for AC activity in the presence of 80 nM Gαs as described in Material and Methods. The mean ±SEM of at least 3 determinations done in triplicates is shown.
PAM purification was performed with some modifications as published previously (Scholich et al. 2001). Shortly, HeLa cells were grown in DMEM medium with 10% fetal bovine serum and 1% penicillin/streptoMycin. Confluent cells of forty 150 mm dishes were harvested with 1×PBS, 1 mM EDTA and pelleted for 5 minutes at 400×g. The cells were resuspended in TED buffer (50 mM Tris-HCl, pH 8.0, 1 mM EDTA, 1 mM DTT) containing 125 mM NaCl, 20 μg/ml of aprotinin, 20 μg/ml leupeptin, 1 mM benzamidine, 5 μg/ml soybean trypsin inhibitor and lysed by 2×5 seconds of sonication. The homogenate was centrifuged at 27000×g for 30 min at 4° C., and the supernatant was loaded on a Q-Sepharose XK16 column (Amersham, Pharmacia, Piscataway, N.J.) and eluted with a gradient of 150-350 mM NaCl in TED according to instructions of the manufacturer. The fractions were analyzed by Western blotting according to standard procedures; positive fractions were pooled and the NaCl concentration adjusted to 1 M. The protein was then loaded on a Phenyl-Sepharose XK16 column (Amersham, Pharmacia, Piscataway, N.J.) and washed with 300 mM NaCl in TED according to instructions of the manufacturer. The flow through and wash fractions contained PAM. They were pooled and the buffer exchanged for the aforementioned TED buffer containing 100 mM NaCl using Centricon 50 (Amicon, Beverly, Mass.) according to the manufacturer's instructions. The protein was then loaded on a MonoS 5/5 FPLC column (Amersham, Pharmacia, Piscataway, N.J.) and washed with the loading buffer (100 mM NaCl in TED) according to instructions of the manufacturer. The flow through was collected and applied to a Mono Q 5/5 FPLC column (Amersham, Pharmacia, Piscataway, N.J.). The protein was eluted with a gradient from 150-400 mM NaCl in TED. […]

Row | Molecule | effect of pre-treatment on S1P-induced PAM translocation (PAM) | effect of pre-treatment on S1P inhibition of Gαs-stimulated AC activity (adenylyl cyclase (AC) [1]) | other results
1 | 3M-as: antisense ODN harboring three mutations, HeLa cells, 5′-AATCCGTATGAACAC-3′ (DNA, backbone and methylation of C not given here) |  |  | effect on serum-induced inhibition of Gαs- and forskolin-stimulated AC activity (adenylyl cyclase (AC) [1]): no influence
2 | CC(=O)OCOC(=O)CN(CC(=O)OCOC(C)=O)c1ccccc1OCCOc1ccccc1N(CC(=O)OCOC(C)=O)CC(=O)OCOC(C)=O [BAPTA-AM, reference compound] | did not interfere |  | 
3 | CN(C)CCCn1cc(C2=C(c3c[nH]c4ccccc34)C(=O)NC2=O)c2ccccc21 [GF109203X, reference compound] | eliminated |  | 
4 | Cn1cc(C2=C(c3cn(CCCSC(=N)N)c4ccccc34)C(=O)NC2=O)c2ccccc21 [RO 31-8220] |  | eliminated | 
5 | COc1ccc2c(c1)CC[C@@H]1[C@@H]2CC[C@]2(C)[C@@H](NCCCCCCN3C(=O)C=CC3=O)CC[C@@H]12 [U73122, reference compound] | abolished | abolished | 
6 | C=C[C@@]1(C)CC(=O)[C@]2(O)[C@@]3(C)[C@@H](O)CCC(C)(C)[C@@H]3[C@H](O)[C@H](OC(C)=O)[C@@]2(C)O1 [forskolin] |  |  | forskolin-stimulated specific activity of AC (adenylyl cyclase (AC) [1]; HeLa cell lysates, 100 μM forskolin): 464 ± 89 pmol/min/mg
7 | PAM: Protein Associated with Myc, giant protein of 510 kDa, full length purified from HeLa cells |  |  | decrease of Gαs-stimulated AC activity (adenylyl cyclase (AC) [2]; DRG lysates): 32%; inhibition of Gαs-stimulated AC activity (adenylyl cyclase (AC) [2]; spinal cord lysates of animals treated for 1 hour with formalin): 25%; decrease of Gαs-stimulated AC activity (adenylyl cyclase (AC) [2]; spinal cord lysates of control animals): 50% and 49%
8 | Pertussis toxin [reference compound] | eliminated | eliminated | 
9 | sense ODN: sense ODN used in HeLa cells, 5′-CTGTTCATGCCGGTT-3′ (DNA, backbone and methylation of C not given here) |  |  | effect on serum-induced inhibition of Gαs- and forskolin-stimulated AC activity (adenylyl cyclase (AC) [1]): no influence
